Assay results published in PubChem BioAssay (NCI).
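1) Cells in 96-well plates. 2) Compound, 48 h, 5 concentrations. 3) Linear interpolation between surrounding doses. 4) Unreached endpoint = highest concentration. TGI is the concentration that stops growth completely.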

Assays:
Assay in all cases: NCI-60 cell line screen, 48 h
[1] = system: HL-60(TB) leukemia
[2] = system: IGROV1 ovarian
[3] = system: M14 melanoma
[4] = system: MOLT-4 leukemia
[5] = system: NCI-H23 lung
[6] = system: NCI-H460 lung
[7] = system: NCI/ADR-RES ovarian
[8] = system: OVCAR-3 ovarian
[9] = system: OVCAR-5 ovarian
[10] = system: SF-268 CNS
[11] = system: SF-539 CNS
[12] = system: SK-MEL-2 melanoma
[13] = system: TK-10 renal
[14] = system: U251 CNS
[15] = system: UACC-62 melanoma
[16] = system: NCI-H226 lung

Compound | TGI [1] [µM] | TGI [2] [µM] | TGI [3] [µM] | TGI [4] [µM] | TGI [5] [µM] | TGI [6] [µM] | TGI [7] [µM] | TGI [8] [µM] | TGI [9] [µM] | TGI [10] [µM] | TGI [11] [µM] | TGI [12] [µM] | TGI [13] [µM] | TGI [14] [µM] | TGI [15] [µM] | TGI [16] [µM]
O=c1[nH]c(=S)[nH]cc1CN1CCOCC1 | > 100 | > 100 | > 100 | > 100 | > 100 | > 100 | > 100 | > 100 | > 100 | > 100 | > 100 | > 100 | > 100 | > 100 | > 100 | 
CN(C)CCNc1ccc(NCC[N+](C)(C)Cc2ccc([N+](=O)[O-])cc2)c2c1C(=O)c1c(O)ccc(O)c1C2=O | > 100 | > 100 |  | 8.8 | > 100 |  | > 100 | > 100 |  | > 100 |  | > 100 |  | > 100 | > 100 | > 100
COc1cc2nc3n(c2cc1OC)C(O)c1c(Cl)nc(SC)nc1S3 (configuration not stated) |  | 13 | 21.8 | > 48.9 | 18.3 | 19.6 | 18.7 | 13.3 | > 95.1 | > 100 | 5.22 | > 27.2 | > 74 | 26.3 | 25.2 | 28
C=C(Br)C(C)(Cl)CCC(Br)C(C)(C)Br (configuration not stated) | 54.5 | > 100 | > 100 | 83.1 | > 100 | > 100 |  |  | > 100 |  | > 100 | 80.4 | > 100 | > 100 | > 100 | > 100
COCN1C(=O)[C@@H]2CCCN2C(=O)c2cc(OC)c(Cc3ccccc3)cc21 |  | > 100 | > 100 |  | > 100 |  | > 100 |  | > 100 | > 100 | > 100 | > 100 | > 100 | > 100 | > 100 | 
CC1(OCc2ccccc2)C(=O)N2C1NCC2(C)C (configuration not stated) | > 100 | > 100 | > 100 | > 100 | > 100 | > 100 |  | > 100 |  | > 100 | > 100 | > 100 | > 100 | > 100 | > 100 | > 100
Cc1ccc(S(=O)(=O)n2cc(/C=C/C#N)c(-c3cn(S(=O)(=O)c4ccc(C)cc4)cc3-c3cn(S(=O)(=O)c4ccc(C)cc4)cc3/C=C/C#N)c2)cc1 |  | > 100 | > 100 |  | > 100 |  | > 100 | > 100 | > 100 | > 100 |  | > 100 | > 100 |  | > 100 | > 100
CC[C@@H]1/C=C/C=C/C[C@H](C)[C@@H](O)[C@@H](C)C(=O)[C@H](C)[C@@H](O)[C@H](C)C(=O)[C@H](C)[C@@H](O)[C@H](C)/C=C/C(=O)O[C@H]2[C@@H](C)[C@@H](CC1)O[C@@]1(CC[C@@H](C)[C@@H](CC(C)O)O1)[C@@H]2C (some centres not stated) | 7.27 | 24.9 | > 14.7 | 7.65 | > 25 | > 22.2 | > 19.1 | 17.7 | 15.4 | > 25 | 24.6 | 18.1 | > 23.6 | > 25 | 14.5 | 
CC1(C)CNC(=O)C2(CCCO2)CNC(C)(C)CNC(=O)C2(CCCO2)CN1 (configuration not stated) | > 10 | > 10 | > 10 | > 10 | > 10 |  | > 10 | > 10 | > 10 | > 10 | > 10 |  | > 10 | > 10 | > 10 | 
COc1cc(CN=c2nc(N(C)C)ss2)cc(OC)c1OC | 4.47 | > 10 | > 10 | 7.18 | > 10 | > 10 | > 10 | > 10 | > 10 | > 10 | > 10 |  | > 10 | > 10 | > 10 | > 10
CN(C)c1cccc(-c2cc(=S)c3cc4c(cc3[nH]2)OCO4)c1 |  | > 100 | > 100 | > 93 | > 100 | > 100 | > 100 | > 100 | > 100 | > 100 | > 100 | > 100 | > 100 | > 100 | > 100 | > 100
CN(Cc1cnc2nc(N)nc(N)c2n1)c1ccc(C(=O)NCCCS(=O)(=O)O)cc1 |  | > 100 | > 100 | > 100 | > 100 | > 100 | > 100 | > 100 | > 100 | > 100 | > 100 | > 100 | > 100 | > 100 | > 100 | > 100
O=C1Cc2c(-c3cccs3)cc(-c3ccccc3)nc2-c2ccccc2N1 |  | 71.5 | > 100 | > 100 | > 100 | > 100 | > 100 | > 100 | > 100 | 56.8 | > 100 | > 100 | > 100 |  | > 100 | > 100
CCOC(=O)c1nc2ccccc2nc1Oc1cc(OC)cc(OC)c1 |  | > 100 | > 100 | > 100 |  | > 100 | > 100 | > 100 | > 100 | > 100 | > 100 | > 100 | > 100 | > 100 | > 100 | > 100
COc1ccc2c(O)c(Oc3ccc(Cl)cc3)c(=O)oc2c1 | > 100 | > 100 | > 100 | > 100 | > 100 | > 100 |  | > 100 | > 100 | > 100 | > 100 |  | > 100 | > 100 |  | > 100
CCC(C)N1CN(c2ccccc2)C2(CCN(CC3COc4ccccc4O3)CC2)C1=O (configuration not stated) | 34.4 | > 100 | 46.3 | 66.4 | 73.1 |  | 44.1 | 56.2 |  | > 100 | 33.3 |  | 86.2 | 38.7 | 49.8 | 52.3
